Like-named read-outs stand apart in the source and are kept apart here. Marks after values point to notes of the source that are not given here.
Key:
[1] = Plasma PK of total radioactivity, [14C]-nifurtimox and metabolites after oral dosing (HPLC-LSC); format: in vivo; settings: male Wistar rats; for %AUC(0-8) (relative to total radioactivity AUC(0-8)): oral 2.5 mg/kg, M-2+M-3, M-4, M-5 are estimates based on AUC(0-tn); for half-life / Tmax: rat; for half-life: plasma, interval up to 8 h, read-out: t½ (converted)
Description: (§1) Animals were housed in suitable metabolism cages. […] Blood cells and plasma were separated by centrifugation. Plasma was stored at ≤-15°C prior to analysis. […] All biological samples were weighed immediately. […] The remaining carcass was also wet-weighed.
Aliquots of individual plasma samples were pooled separately for each timepoint by equal volume. For protein precipitation, pooled plasma was treated with a three-fold volume of acetonitrile. Samples were homogenized and precipitated by centrifugation (20,000 g, 5 min). Samples were concentrated and analyzed using high-performance liquid chromatography (HPLC) with off-line radioactivity detection by LSC (HPLC-LSC).

[2] = Stability study: metabolite profiles in snap-frozen plasma and urine at early timepoints after oral [14C]-nifurtimox; format: in vivo, male Wistar rats; settings: oral 2.5 mg/kg, snap-frozen
Description: as §1
The combined supernatant was analyzed directly using HPLC-LSC.

[3] = Quantification of nifurtimox and metabolites in human urine (LC-HRMS); format: in vivo; settings: single oral 120 mg nifurtimox; for AE,urine(0–24h), fasted patients: mean of 6 fasted patients with Chagas disease; for AE,urine(0–24h), fed patients: mean of 6 fed patients with Chagas disease
Description: Urine samples were collected from fasted and fed patients pre-dose (0 h) and at four post-dose intervals (0-4, 4-8, 8-12, and 12-24 h) and stored frozen until required. For analysis, urine samples were thawed at room temperature and homogenized by vortex mixing. […] Equal volumes (75 µL) of an internal standard solution of [^2H8]-nifurtimox dissolved in water (10 µg/mL) were added to each urine, calibration, or control sample and mixed thoroughly. Samples from 6 patients were then analyzed using liquid chromatography-high-resolution mass spectrometry (LC-HRMS) with a 1290 Infinity LC system equipped with a diode array detector and an Orbitrap Fusion™ Lumos™ Tribrid™ HRMS (Thermo Fisher Scientific, Bremen, Germany) with a heated electrospray ionization source. For quantification, the LC conditions were as described above for analysis of rat plasma, and the HRMS parameters were: mass range, 120-600 Da in full scan mode and all ion fragmentation in positive ionization mode; resolution, 240,000; ion source voltage, 3500 V; capillary temperature, 300°C; source temperature, 60°C.
The system was calibrated using the relative peak area as a function of concentration, which was obtained by linear regression. Quantification was performed on a mass basis (μg/mL), with the final calculation for the percentage of dose excreted in urine made on a molar basis to account for the substantial differences (up to ~2.5-fold) in the molecular masses of the compounds of interest. The analytical precision for all analytes was in the range of 1.1% to 4.4%, with an accuracy of 94% to 107%. All concentrations in μg/mL were back-calculated to nmol/mL, and these concentrations were then used to calculate a total molar amount based on the urine volume collected during each interval.

[4] = Quantification of nifurtimox and metabolites in human plasma (LC-HRMS), plasma PK; format: in vivo; settings: fed; for AUC(tlast-∞) (extrapolated proportion): pooled plasma of 6 patients, single oral 120 mg nifurtimox; for AUC, % of total quantified exposure: sum of AUC of nifurtimox and M-1 to M-6 = 100%, single oral 120 mg
Description: Plasma samples from timepoints 0, 0.25, 0.5, 0.75, 1, 1.5, 2, 2.5, 3, 4, 6, 8, 12, 15, and 24 h from 6 patients were analyzed. Blood samples were collected into lithium heparinized tubes. Blood cells and plasma were then separated by centrifugation, and the plasma was stored frozen until needed. For the analysis, plasma samples were thawed at room temperature and homogenized by vortex mixing. Equal volumes of plasma from the six patients for each timepoint were combined to a pooled volume of 200 µL. To precipitate protein, a 3-fold volume of acetonitrile/0.5% formic acid (v/v in water) was added to each pooled sample which was thoroughly mixed and then centrifuged at 20,000 g. […] For all analytes, the analytical precision ranged from 0.1% to 8.8%, and the accuracy was 95% to 108%.

[5] = Quantification of nifurtimox and metabolites in rat plasma after a single high dose (200 mg/kg); format: in vivo, Wistar rats; settings: Wistar, rat, plasma, po, 200 mg/kg
Description: Blood cells and plasma were then separated by centrifugation, and the plasma was stored at ≤-15°C until required. For analysis, plasma samples were thawed at room temperature and homogenized by vortex mixing. Plasma samples were pooled separately for male and female rats by combining 25 µL from each of the 4 animals for each timepoint. […] To each pooled plasma (100 µL), calibration, or control sample, 300 µL of an internal standard solution containing [^2H8]-nifurtimox (500 ng/mL) and [^2H3]-M-6 (2500 ng/mL) in acetonitrile + 0.5% formic acid in water (v/v) was added and mixed thoroughly. All samples were then centrifuged (20,000 g, 5 min) to precipitate the protein. The supernatant was analyzed using a 1290 Infinity LC system equipped with a diode array detector and an Orbitrap Q-Exactive Plus HRMS (Thermo Fisher Scientific, Bremen, Germany) with a heated electrospray ionization source. […] The mobile phase gradient was: 0 min, 0% B; 2.5 min, 0% B; 3 min, 20% B; 8 min, 45% B; 9 min, 90% B; 10.1 min, 90% B; 12 min, 0% B; 13 min, 0% B. The following HRMS parameters were used: mass range, 120-200 Da (0-2.5 min) and 230-600 Da (2.5-13 min) in full scan mode; resolution, 280,000; ion source voltage, 3500 V; capillary temperature, 300°C; source temperature, 60°C.
The calibration was based on the relative peak area as a function of concentration obtained by linear regression. […] Thus, all concentrations in μg/mL were back-calculated to nmol/mL. The PK parameters for each analyte were calculated using ToxKin software, as described above.

[6] = Mass balance and metabolite profiling in excreta after oral [14C]-nifurtimox in intact rats; settings: intact male Wistar rats, 2.5 mg/kg oral, up to 120 h; 2.5 mg/kg
Description: After an adaption period, the animals were prepared for the study. Bile duct cannulation was performed on selected animals the day before their use in experiments.
In a mass balance study (n = 5) and a PK study (n = 2 per timepoint), 2.5 mg/kg b.w. […] For i.v. administration, 2.5 mg/kg b.w. […] In an additional stability study, male Wistar rats (n = 3 per timepoint) were administered 2.5 mg/kg b.w. […] The total radioactivity concentration in the dosage form was confirmed by liquid scintillation counting (LSC).
Animals were housed in suitable metabolism cages. Blood was collected from separate rats at 0.25, 0.5, 1, 1.5, 2, 3, 5, and 8 h post-dose and stored in lithium heparinized tubes. Blood cells and plasma were separated by centrifugation. Plasma was stored at ≤-15°C prior to analysis. […] At the end of the study, the cages were rinsed with water, and samples were collected. All biological samples were weighed immediately. Feces samples were homogenized with water to obtain a uniform radioactivity distribution. All samples were stored deep-frozen at ≤-15/-70°C before further processing. During the necropsy, selected organs and tissues were collected and wet-weighed. The remaining carcass was also wet-weighed. The carcass and all tissues were homogenized and stored at room temperature prior to processing for analysis. In the stability study, blood and urine were collected at 0.25 and 0.5 h post-dose. Plasma and urine were immediately frozen in liquid nitrogen and stored at -80°C to prevent degradation. The total radioactivity in samples and tissues was determined by LSC after appropriate sample preparation.
Aliquots of individual urine or bile samples were pooled separately for each time interval by equal volume and analyzed using HPLC-LSC. Aliquots of individual feces samples were pooled separately for each time interval, ensuring that each aliquot contained the same amount of radioactivity. The pooled samples were extracted twice with a mixture of acetonitrile/water (80:20 v/v, 2 x 0.5 mL). The resulting suspensions were centrifuged (20,000 g, 5 min), and the supernatants were then combined for each time interval, concentrated, and subjected to HPLC-LSC.
The amount of total radioactivity in urine, feces, bile, and tissues was determined by multiplying the volume or weight of the samples by the respective total radioactivity concentration. The amount of radioactivity recovered in the excreta (AE), cage wash, and tissues was compared with the administered radioactive dose to establish the radioactive balance. Cumulative excretion was calculated as the sum of the excretion for each collection interval. Arithmetic means and coefficients of variation (CV) were calculated for these percentages. During metabolite profiling, the concentration or amount of each analyte for each sample and timepoint or interval was calculated by multiplying the total radioactivity concentration or amount excreted of each sample with the percent area of each analyte obtained after HPLC-LSC separation.

[7] = single oral 2.5 mg/kg [14C]-nifurtimox, pooled plasma
[8] = single oral 2.5 mg/kg [14C]-nifurtimox
[9] = female, read-out: AUC(0–24), female animals
[10] = female, read-out: AUC, female animals
[11] = female, read-out: Cmax, female animals
[12] = female, read-out: tmax, female animals
[13] = female, read-out: t½, female animals (converted)
[14] = male, read-out: AUC(0–24), male animals
[15] = male, read-out: AUC, male animals
[16] = male, read-out: Cmax, male animals
[17] = male, read-out: tmax, male animals
[18] = male, read-out: t½, male animals (converted)

Row | SMILES | AUC [1, 7] [µg-eq*h/L] | AUC(0-tn) [1, 7] [µg-eq*h/L] | Cmax [1, 7] [µg-eq/L] | tn (time of last quantifiable concentration) [1, 7] [h] | half-life [1, 8] [h] | Tmax [1, 7] [h] | AE,urine(0–24h), fasted patients [3] | AE,urine(0–24h), fed patients [3] | AUC(tlast-∞) (extrapolated proportion) [4] [%] | AUC, % of total quantified exposure [4] | AUC(0-t) [5, 9] [µM·h] | AUC [5, 10] [µM·h] | Cmax [5, 11] [nM] | Tmax [5, 12] [h] | half-life [5, 13] [h] | AUC(0-t) [5, 14] [µM·h] | AUC [5, 15] [µM·h] | Cmax [5, 16] [nM] | Tmax [5, 17] [h] | half-life [5, 18] [h] | other results
1 | CC1CS(=O)(=O)CCN1/N=C/C(=O)CCC#N (stereo not drawn) [M-1] | 767 | 715 | 138 | 8 | 1.36 | 3 | 3.2 % of dose | 2.0 % of dose | 7.6 | 1.8% | 36.7 | 44.2 | 2050 | 8 | 4.6 | 28.2 | 46.6 | 1390 | 24 | 4.2 | %AUC(0-8) (relative to total radioactivity AUC(0-8)) [1]: 16.1%; AUC(0-8) [1, 7]: 715 µg-eq*h/L; share of sample radioactivity in plasma ([2]; 0.25 h post-dose): 1.4 % of sample radioactivity; share of sample radioactivity in plasma ([2]; 0.5 h post-dose): 2.3 % of sample radioactivity; component excreted in feces, oral dosing [6]: 1.5 % of the administered dose
2 | CC1CS(=O)(=O)CCN1/N=C/C(CCC(=O)O)=N\O (stereo not drawn) [M-2] | – | – | – | – | – | – | 1.0 % of dose | 2.4 % of dose | 7.8 | 1.4% | 3.22 | 3.63 | 447 | 2 | 8.5 | 3.31 | 13.4 | 220 | 2 | 63.3 | –
3 | CC1CS(=O)(=O)CCN1/N=C/C(=O)CCC(=O)O (stereo not drawn) [M-3] | – | – | – | – | – | – | 0.06 % of dose | 0.15 % of dose | 49.2 | 1.2^a % | 3.54 | 3.7 | 547 | 1 | 5.8 | 3.64 | 10.1 | 255 | 1 | 39.6 | component excreted in feces, oral dosing [6]: 3.6 % of the administered dose
4 | CC(=O)NC(CSc1ccc(=O)n(N2CCS(=O)(=O)CC2C)c1)C(=O)O (stereo not drawn) [M-5] | 177 | 102 | 32.1 | 5 | 3.76 | 1.5 | 3.4 % of dose | 6.6 % of dose | 11.7 | 0.5% | 1.42 | 2.43 | 186 | 3 | 25.3 | 4.64 | 8.02 | 328 | 3 | 8.2 | %AUC(0-8) (relative to total radioactivity AUC(0-8)) ([1]; 2.5 mg/kg): 2.30^c %

Reference: paper PMC10661964 (Current Drug Metabolism, 2023)
